Laboratory results published in PubChem BioAssay (NCI).
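1) Cells in 96-well plates. 2) Compound, 48 h, 5 concentrations. 3) Linear interpolation between surrounding doses. 4) Unreached endpoint = highest concentration. The concentration for full growth arrest is given as TGI.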

How the values were obtained:
Assay in all cases: DTP human tumour cell line panel, 48 h
ACHN renal = test system: ACHN renal
CCRF-CEM leukemia = test system: CCRF-CEM leukemia
HL-60(TB) leukemia = test system: HL-60(TB) leukemia
KM12 colon = test system: KM12 colon
NCI-H226 lung = test system: NCI-H226 lung
NCI-H23 lung = test system: NCI-H23 lung
NCI-H522 lung = test system: NCI-H522 lung
SF-295 CNS = test system: SF-295 CNS
SK-MEL-2 melanoma = test system: SK-MEL-2 melanoma
SK-MEL-5 melanoma = test system: SK-MEL-5 melanoma
SR leukemia = test system: SR leukemia
T-47D breast = test system: T-47D breast

SMILES	TGI (ACHN renal) [µM]	TGI (CCRF-CEM leukemia) [µM]	TGI (HL-60(TB) leukemia) [µM]	TGI (KM12 colon) [µM]	TGI (NCI-H226 lung) [µM]	TGI (NCI-H23 lung) [µM]	TGI (NCI-H522 lung) [µM]	TGI (SF-295 CNS) [µM]	TGI (SK-MEL-2 melanoma) [µM]	TGI (SK-MEL-5 melanoma) [µM]	TGI (SR leukemia) [µM]	TGI (T-47D breast) [µM]
COC(=O)[C@]1(c2cc3ccccc3n2S(=O)(=O)c2ccccc2)CC2CCC1NC2 (some centres not stated)	51.3	56.8	16.9	28.3	33.2	40.1	30.6	31.2	31.7	26.4	19.2	27.2
O=S(=O)(Nc1ccccc1S(=O)(=O)c1ccccc1)c1ccccc1	> 100	> 100	> 100	> 100	> 100	> 100	> 100	> 100	> 100	> 100	> 100	> 100
Cc1cccc(C)c1NC(=S)/N=C/C1=C(O)c2ccccc2C1=O	> 100	> 100	> 100	> 100	> 100	59.2	17.9	> 100	> 83.3	29.3	8.19	> 100
C=CCC1(O)c2cccc(O)c2C(=O)c2c(O)cccc21	> 100		47.5	> 100	> 100	56.9	75.8	> 100	51.2	85.9	44.7	78.3
CC(=O)OCCn1c(Cc2ccc([N+](=O)[O-])cc2)nn(C(C)=O)c1=O	> 100	> 100	> 100	> 100	> 100	> 100	> 100	> 100	> 100	> 100	> 100	> 100
COc1cc(CNC(=O)CCCCCCCC/C=C/Br)ccc1O	> 10	> 10	> 10	> 10	> 10	> 10	> 10	> 10	> 10	> 10	> 10	> 10
COC(=O)c1ccccc1CC1Cc2cc3c(cc2C1)CCC3	> 100	39.1	23.4	71.1	> 100	> 100	91.6	> 100	43.9	55.3	29.2	> 100
CCCNc1[nH]c(C(C)=O)c(N)c1C(=S)Nc1ccccc1	> 100	> 100	> 100	> 100	75	> 100	> 100	> 100	> 100	52.3	> 100	> 100
CC(=O)Oc1ccc(-c2cc3ccccc3oc2=O)cc1OC(C)=O	> 100	> 100	7.48	33.2	> 100	> 100	> 100	67.9	> 100		> 100	> 100
Nc1nc(Cl)c2ncn(Cc3ccccc3CCl)c2n1	22	> 100	> 100	39	9.95	8.84	9.41	23.4	80.6	26.5	> 100	83.9
CC[C@H](CCCCC1CC[C@@H]2CC(=O)C[C@H]12)OC (some centres not stated)	> 100	> 100	> 100	> 100	> 100	> 100	> 100	> 100	> 100	> 100	> 100	> 100
N#Cc1c(N2CCOCC2)ncn(-c2ccccc2)c1=O	> 100	> 100	> 100	> 100	> 100	> 100		> 100	> 100	> 100	> 100	> 100
CCCCc1ccc(Nc2nc(Cl)c3[nH]cnc3n2)cc1	> 100	> 100	> 100	32	> 100	33.9	65.3	34.6	31	31.6	> 100	37.2
CCCCNc1nc(SC)nc2nc[nH]c12	> 100	> 100	> 100	> 100	> 100	> 100	> 100	> 100	> 100	> 100	> 100	> 100
C=CCCCC1(C)CCCCNC1=O (configuration not stated)	> 10	> 10	> 10	> 10	> 10	> 10		> 10	> 10	> 10	> 10	> 10
CN1c2ccccc2C2c3c(O)ccc(O)c3C=C([N+](=O)[O-])C21 (configuration not stated)	1.97	> 100	3.17	1.82	> 92.9	5.61	0.17	8.29	7.08	1.89	> 24.8	> 100
COc1ccc(-c2nc3ccc(C)cc3o2)c(OC)c1	> 100	65.8	50	40.4	79.1	87.5	39.2	46.8	71.7	43.3	> 72.3	> 96.1
C[C@H](CCc1nc(C#N)c(N)o1)[C@H]1CC[C@H]2[C@@H]3[C@@H](O)CC4C[C@@H](O)CC[C@]4(C)[C@H]3C[C@@H](O)[C@]12C (some centres not stated)	> 90	> 25.2	> 26.9	53.8	62.9	58.5	18.4	53.2	45.1	40.9	> 61.8	85.6
CC(C)(C)SC1=CCC[C@@H](P(=O)(c2ccccc2)c2ccccc2)[C@@H]2CCC[C@@H]12	30.6	60.6	47.5	35.5	35.6	33.6	31.3	29	31.8	32.8	43.6	33.3
CS(=O)(=O)C(=Cc1ccccc1Cl)S(C)(=O)=O	> 100	> 100	> 100	> 46.4	> 100	> 100	> 100	> 46.4	> 100	> 100	> 100	> 100
Cc1ccc(S(=O)(=O)n2ccn3c(=O)cc(C)nc23)cc1	> 10	> 10	> 10	> 10	> 10	> 10		> 10	> 10	> 10	> 10	> 10
Nc1nc(Cl)cc(Nc2ccc3c(c2)CCC3)n1	> 100	> 100	80.9	> 100	> 100	> 100	> 100	> 100	> 100	> 100	63.3	> 100
COC(=O)C1=NN2c3ccccc3CN([C@@H](C)c3ccccc3)C(=O)[C@@H]2C1	> 100	> 100	48.6	51.3	> 100	> 100	53.1	> 100	74.1	32.7	82.9	40.1
Cc1ccc(C2SC(N)=Nc3c2c(C)nn3C(=O)c2ccncc2)cc1 (configuration not stated)	> 10	> 10	> 10	> 10	> 10	> 10	> 10	> 10	> 10	> 10	> 10	> 10
CCOC(=O)c1sc2nc(SC)nc(Nc3ccc(OC)c(OC)c3)c2c1N	> 100	> 100	> 100	> 100	> 100	> 100	> 100	45.6	> 100	> 100	> 100	> 100
CCC(=S)N(C)O	> 100	12.3	13.6	> 93.1	> 100	> 100	8.28	> 100	86.6	51	24.1	> 100
